“And” between values parts separate entries of the source, which are not always exact repeats. Identical values can stand only once.
Tests used:
[1] = four 1-minute maximal sprints at 125%, fifth interval to exhaustion; ingestion prior to exercise; cited from earlier work
[2] = venous blood; typical time course; cited from earlier work
[3] = trial (i): 300 mg sodium bicarbonate per kg of body mass, 100 min before exercise; fourteen healthy male volunteers; differs from placebo and no ingestion (P<0.05)
Protocol: A double-blind protocol was used between the (i) and (ii) trials. […] Each condition was repeated so that the volunteers underwent treadmill exercise for six times. 100 minutes before commencing treadmill exercise was allowed after ingesting substances in (i), (ii) and (iii). The volunteers exercised until fatigue. Fourteen of the volunteers completed all the tests.
A double-blind protocol was used between the (i) and (ii) trials. […] Each condition was repeated so that the volunteers underwent treadmill exercise for six times. 100 min before commencing treadmill exercise was allowed after ingesting substances in (i), (ii) and (iii). The volunteers exercised until fatigue.
Results: Fourteen of the volunteers completed all the tests. […] The data were analyzed using a two-way ANOVA with replicates and Tukey tests.

[4] = 100, 150, and 200 mg NaHCO3/kg body weight; 2-minute maximal exercise bout; cited from earlier work
[5] = running at intensity corresponding to blood lactate of 4 mM, sustained approximately 30 minutes; cited from earlier work
[6] = Wilkes and co-workers, cited from earlier work
[7] = Blood glucose readings, Type I diabetic patient (Tables 1 and 2); assay type: in vivo, human; conditions: Table 1, one week before starting treatment, insulin 30 iu twice a day, daily readings Mon-Sun
Description: The patient started using the first method of treatment (day and night), then changed to the 3rd method after 2 weeks of treatment, carried n with it continuously.
The patient was on 30 iu of insulin twice a day (60 iu/day) regardless of any reading of their glucose levels. […] After 4 weeks of continuous treatment with P.I.R.T (treatment method number three), their insulin does was reduced to 10 iu in the morning and 20 iu in the evening (30 iu per day).

| Compound | increase of exercise duration of the final bout [1] [%] | time of maximal rise in pH bicarbonate ion concentration after ingestion [2] | time pH bicarbonate ion concentration remains elevated after ingestion [2] | average time, treadmill exercise until fatigue [3] [s] | effect on power output [4] | effect on time to exhaustion [5] | decrease in 800 m running time [6] [s] | distance equivalent of the decrease in 800 m running time ([6]; estimated) | Pre tea BG [7] |
| --- | --- | --- | --- | --- | --- | --- | --- | --- | --- |
| O=C([O-])O.[Na+] [sodium bicarbonate] | 42 | about 1.5 hours | at least 2 hours | 4.01 | no significant increase | no effect | ~3 | approximately 19 m | – |
| insulin | – | – | – | – | – | – | – | – | 23.1 mM and 26.2 mM and 18.4 mM and 22.2 mM and 19.5 mM and 19.9 mM and 17.4 mM |

Source: patent US20050221406A1, “Method, composition and device for treating starch related diseases” (priority 2004, published 2005)
